Patent US12565497B2 (Hoffmann-La Roche Inc., priority 2020, dated 2026)
Counter-ions that a name gives are not always drawn.

Target: Recombinant human Mat2a (Homo sapiens (Human), UniProt P31153)
Test: Determination of Mat2A activity (384 well absorbance-based assay, Biomol Green)
Type: biochemical
Conditions: 12.5 nM Mat2A, 100 μM ATP and Methionine, 2% DMSO, 120 minutes at RT, absorbance at 635 nm; read-out: MAT2A_LEC IC50 (uM) (Num)
Procedure: Determination of Mat2A Activity
Measurement of Mat2A inhibition is performed in 384 well format absorbance-based assay. Recombinant human Mat2a (12.5 nM) and serial diluted compounds in DMSO (range of concentrations from 10 μM to 508 pM) or controls (DMSO) are incubated for 15 minutes at room temperature (RT) in assay buffer containing 50 mM HEPES pH 7.5, 50 mM KCl, 50 mM MgCl2, 0.01%Tween 20 and 10 mM DTT. The reaction is initiated by the addition of the combined substrates ATP and Methionine, each at a final concentration of 100 μM. Final assay condition are 12.5 nM Mat2A, 100 μM ATP and Methionine Substrates and 2% DMSO. After 120 minutes of incubation at RT, the reaction is stopped by the addition of Biomol Green. The absorbance signal is measured at λ=635 nm with a multiplate reader (BMG Pherastar reader or equivalent) after 30 min of equilibration at RT.

Chain of Recombinant human Mat2a (P31153 whole entry): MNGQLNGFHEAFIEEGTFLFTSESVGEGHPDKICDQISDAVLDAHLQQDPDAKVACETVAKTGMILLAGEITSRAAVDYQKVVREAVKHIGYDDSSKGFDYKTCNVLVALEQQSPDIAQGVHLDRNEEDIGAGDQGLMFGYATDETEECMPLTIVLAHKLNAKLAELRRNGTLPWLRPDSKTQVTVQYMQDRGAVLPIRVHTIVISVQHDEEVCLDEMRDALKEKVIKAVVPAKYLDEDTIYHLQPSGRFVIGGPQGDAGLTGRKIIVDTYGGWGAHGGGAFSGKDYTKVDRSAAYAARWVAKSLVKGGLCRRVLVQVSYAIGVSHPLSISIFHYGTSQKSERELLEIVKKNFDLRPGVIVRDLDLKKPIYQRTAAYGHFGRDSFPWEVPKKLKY

IC50 [µM] | Compound
0.048 | Cc1cc(-c2nccc3[nH]nc(C4CC4)c23)ccc1S(C)(=O)=O [Example 1, 3-cyclopropyl-4-(3-methyl-4-(methylsulfonyl)phenyl)-1H-pyrazolo[4,3-c]pyridine]
0.029 | Cc1cc(-c2nccc3[nH]cc(C(F)(F)F)c23)ccc1S(C)(=O)=O [Example 40, 4-(3-methyl-4-(methylsulfonyl)phenyl)-3-(trifluoromethyl)-1H-pyrrolo[3,2-c]pyridine]
< 0.013 | COc1ncc2[nH]nc(C3CC3)c2c1-c1ccc(S(C)(=O)=O)c(C)c1 [Example 24, 3-cyclopropyl-5-methoxy-4-(3-methyl-4-(methylsulfonyl)phenyl)-1H-pyrazolo[3,4-c]pyridine]
< 0.013 | CNC(=O)c1ncc2[nH]nc(C3CC3)c2c1-c1cc(C)c(S(C)(=O)=O)cc1F [Example 97, 3-cyclopropyl-4-(2-fluoro-5-methyl-4-methylsulfonyl-phenyl)-N-methyl-1H-pyrazolo[3,4-c]pyridine-5-carboxamide]
0.17 | Cc1cc(-c2nccc3[nH]nc(C4CC4)c23)ccc1S(=O)(=O)N(C)C [Example 5, 4-(3-cyclopropyl-1H-pyrazolo[4,3-c]pyridin-4-yl)-N,N,2-trimethylbenzenesulfonamide]
0.051 | Cc1cc(-c2nccc3[nH]nc(OC(F)F)c23)ccc1S(=O)(=O)CCO [Example 36, 2-[4-[3-(difluoromethoxy)-1H-pyrazolo[4,3-c]pyridin-4-yl]-2-methyl-phenyl]sulfonylethanol]
0.079 | Cc1cc(-n2c(=O)c(C3CC3)cc3[nH]nc(C4CC4)c32)ccc1S(C)(=O)=O [Example 81, 3,6-dicyclopropyl-4-(3-methyl-4-methylsulfonyl-phenyl)-1H-pyrazolo[4,3-b]pyridin-5-one]
0.52 | Cc1cc(-c2nccc3[nH]nc(-c4ccsc4)c23)ccc1S(C)(=O)=O [Example 65, 4-(3-methyl-4-(methylsulfonyl)phenyl)-3-(thiophen-3-yl)-1H-pyrazolo[4,3-c]pyridine]
0.042 | Cc1cc(-c2nccc3[nH]nc(C(C)C)c23)ccc1S(C)(=O)=O [Example 19, 3-isopropyl-4-(3-methyl-4-(methylsulfonyl)phenyl)-1H-pyrazolo[4,3-c]pyridine]
< 0.013 | Cc1cc(-c2c(C#N)ncc3[nH]nc(C4CC4)c23)ccc1S(=O)(=O)C1CC1 [Example 43, 3-cyclopropvl-4-(4-cyclopropylsulfonyl-3-methyl-phenyl)-1H-pyrazolo[3,4-c]pyridine-5-carbonitrile]
< 0.013 | Cc1cc(-c2nccc3[nH]nc(OC(F)F)c23)ccc1S(=O)(=O)C1CC1 [Example 26, 4-(4-cyclopropylsulfonyl-3-methyl-phenyl)-3-(difluoromethoxy)-1H-pyrazolo[4,3-c]pyridine]
0.056 | Cc1cc(-c2nccc3[nH]nc(C4CC4)c23)c(F)cc1S(C)(=O)=O [Example 21, 3-cyclopropyl-4-(2-fluoro-5-methyl-4-methylsulfonyl-phenyl)-1H-pyrazolo[4,3-c]pyridine]
< 0.013 | Cc1cc(-c2c(OC(F)F)ncc3[nH]nc(C4CC4)c23)ccc1S(C)(=O)=O [Example 82, 3-cyclopropyl-5-(difluoromethoxy)-4-(3-methyl-4-(methylsulfonyl)phenyl)-1H-pyrazolo[3,4-c]pyridine]
< 0.013 | COc1n[nH]c2ccc(C#N)c(-c3ccc(S(C)(=O)=O)c(C)c3)c12 [Example 68, 3-methoxy-4-(3-methyl-4-(methylsulfonyl)phenyl)-1H-indazole-5-carbonitrile]
< 0.013 | Cc1cc(-c2c(C(F)(F)F)ncc3[nH]nc(C4CC4)c23)ccc1S(C)(=O)=O [Example 79, 3-cyclopropyl-4-(3-methyl-4-methylsulfonylphenyl)-5-(trifluoromethyl)-1H-pyrazolo[3,4-c]pyridine]
0.099 | Cc1cc(-c2nccc3[nH]cc(C4CC4)c23)ccc1S(C)(=O)=O [Example 14, 3-cyclopropyl-4-(3-methyl-4-(methylsulfonyl)phenyl)-1H-pyrrolo[3,2-c]pyridine]

IC50 [µM] | Compound
0.15 | Cc1cc(S(C)(=O)=O)c(C)cc1-c1nccc2[nH]nc(C3CC3)c12 [Example 22, 3-cyclopropyl-4-(2,5-dimethyl-4-methylsulfonyl-phenyl)-1H-pyrazolo[4,3-c]pyridine hydrochloride]
0.033 | CS(=O)(=O)c1ccc(-c2nccc3[nH]nc(OC(F)F)c23)cc1C(F)F [Example 31]
< 0.013 | CNC(=O)c1ncc2[nH]nc(C3CC3)c2c1-c1ccc(S(C)(=O)=O)c(C)c1 [Example 73]
< 0.013 | Cc1cc(-c2nccc3[nH]nc(C(C)(F)F)c23)ccc1S(C)(=O)=O [Example 17, 3-(1,1-difluoroethyl)-4-(3-methyl-4-(methylsulfonyl)phenyl)-1H-pyrazolo[4,3-c]pyridine]
0.061 | COc1cc2[nH]nc(C3CC3)c2c(-c2ccc(S(C)(=O)=O)c(C)c2)n1 [Example 70, 3-cyclopropyl-6-methoxy-4-(3-methyl-4-methylsulfonylphenyl)-1H-pyrazolo[4,3-c]pyridine]
< 0.013 | CNC(=O)c1ncc2[nH]nc(C3CC3)c2c1-c1ccc(S(C)(=O)=O)c(C(F)F)c1 [Example 51, 3-cyclopropyl-4-[3-(difluoromethyl)-4-methylsulfonyl-phenyl]-N-methyl-1H-pyrazolo[3,4-c]pyridine-5-carboxamide]
< 0.013 | Cc1cc(-c2c(C#N)ncc3[nH]nc(OC(F)F)c23)ccc1S(C)(=O)=O [Example 52, 3-(difluoromethoxy)-4-(3-methyl-4-methylsulfonyl-phenyl)-1H-pyrazolo[3,4-c]pyridine-5-carbonitrile]
0.029 | Cc1cc(-n2c(=O)ccc3[nH]cc(C4CC4)c32)ccc1S(C)(=O)=O [Example 92, 3-cyclopropyl-4-(3-methyl-4-methylsulfonyl-phenyl)-1H-pyrrolo[3,2-b]pyridin-5-one]
< 0.013 | Cc1cc(-c2c(S(=O)(=O)C3COC3)ccc3[nH]nc(OC(F)F)c23)ccc1S(C)(=O)=O [Example 111, 3-(difluoromethoxy)-4-(3-methyl-4-methylsulfonyl-phenyl)-5-(oxetan-3-ylsulfonyl)-1H-indazole]
0.04 | Cc1cc(-c2ncc(NCCCN)c3[nH]nc(C4CC4)c23)ccc1S(C)(=O)=O [Example 104, N′-[3-cyclopropyl-4-(3-methyl-4-methylsulfonyl-phenyl)-1H-pyrazolo[4,3-c]pyridin-7-yl]propane-1,3-diamine]
0.24 | CS(=O)(=O)c1ccc(-c2nccc3[nH]nc(C4CC4)c23)cc1C(F)(F)F [Example 4, 3-cyclopropyl-4-(4-(methylsulfonyl)-3-(trifluoromethyl)phenyl)-1H-pyrazolo[4,3-c]pyridine]
< 0.013 | Cc1cc(-c2c(C#N)ncc3[nH]nc(C4CC4)c23)ccc1S(C)(=O)=O [Example 16, 3-cyclopropyl-4-(3-methyl-4-(methylsulfonyl)phenyl)-1H-pyrazolo[3,4-c]pyridine-5-carbonitrile]
0.017 | Cc1cc(-c2c(S(C)(=O)=O)ccc3[nH]nc(C(F)(F)F)c23)ccc1S(C)(=O)=O [Example 44, 4-(3-methyl-4-(methylsulfonyl)phenyl)-5-(methylsulfonyl)-3-(trifluoromethyl)-1H-indazole]
0.03 | Cc1cc(-c2c(S(=O)(=O)N(C)C)ccc3[nH]nc(C4CC4)c23)ccc1S(C)(=O)=O [Example 114, 3-cyclopropyl-N,N-dimethyl-4-(3-methyl-4-methylsulfonyl-phenyl)-1H-indazole-5-sulfonamide]
0.11 | Cc1cc(-c2nncc3[nH]nc(C4CC4)c23)ccc1S(C)(=O)=O [Example 74, 3-cyclopropyl-4-(3-methyl-4-(methylsulfonyl)phenyl)-1H-pyrazolo[3,4-d]pyridazine]
0.25 | Cc1cc(-c2nccc3[nH]nc(C#N)c23)ccc1S(C)(=O)=O [Example 61, 4-(3-methyl-4-(methylsulfonyl)phenyl)-1H-pyrazolo[4,3-c]pyridine-3-carbonitrile]

Compound | IC50 [µM]
CNC(=O)c1ncc2[nH]nc(C3CC3)c2c1-c1cc(C)c(S(=O)(=O)C2CC2)cc1F [Example 96, 3-cyclopropyl-4-(4-cyclopropylsulfonyl-2-fluoro-5-methyl-phenyl)-N-methyl-1H-pyrazolo[3,4-c]pyridine-5-carboxamide] | < 0.013
CNC(=O)c1ncc2[nH]nc(C3CC3)c2c1-c1ccc(S(=O)(=O)C2CC2)c(C)c1 [Example 46, 3-cyclopropyl-4-(4-cyclopropylsulfonyl-3-methyl-phenyl)-N-methyl-1H-pyrazolo[3,4-c]pyridine-5-carboxamide] | < 0.013
Cc1cc(-c2c(C(N)=O)ncc3[nH]nc(OC(F)F)c23)ccc1S(=O)(=O)C1CC1 [Example 116, 4-(4-cyclopropylsulfonyl-3-methyl-phenyl)-3-(difluoromethoxy)-1H-pyrazolo[3,4-c]pyridine-5-carboxamide] | < 0.013
